Assay results as given in US20200199647A1, “ASSAY FOR SCREENING MODULATORS OF HOLOPHOSPHATASE ACTIVITY” (UNITED KINGDOM RESEARCH AND INNOVATION, priority 2017, published 2020).

Columns and labels:
[1] = molecular target: T1, PP1 (1 μM) in the presence of R15A (Homo sapiens, UniProt O75807); experiment: In vitro dephosphorylation of P-eIF2α using stoichiometric PP1c (1 μM) with R15A; format: biochemical; conditions: 1 μM PP1c, 1 μM P-eIF2α, 30° C., 16 h; compounds 100 μM
T1 construct: PPP1R15A amino acids 325-636 (R15A); His6 (C); made in house; host or cells: E. coli BL21 pLysS (R15A, eIF2α); E. coli BL21/pGro7 (PP1c)
T1 sequence (O75807 325-636, stated change not applied): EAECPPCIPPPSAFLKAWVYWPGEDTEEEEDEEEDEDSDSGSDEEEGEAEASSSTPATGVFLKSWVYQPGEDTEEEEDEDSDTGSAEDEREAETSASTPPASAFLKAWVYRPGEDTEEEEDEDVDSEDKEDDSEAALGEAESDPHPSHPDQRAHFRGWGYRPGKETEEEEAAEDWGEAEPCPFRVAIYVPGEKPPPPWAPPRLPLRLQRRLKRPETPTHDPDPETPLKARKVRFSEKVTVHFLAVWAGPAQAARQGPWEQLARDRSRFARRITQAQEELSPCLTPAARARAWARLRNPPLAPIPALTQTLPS
T1 sequence (P62136 7-330 partner): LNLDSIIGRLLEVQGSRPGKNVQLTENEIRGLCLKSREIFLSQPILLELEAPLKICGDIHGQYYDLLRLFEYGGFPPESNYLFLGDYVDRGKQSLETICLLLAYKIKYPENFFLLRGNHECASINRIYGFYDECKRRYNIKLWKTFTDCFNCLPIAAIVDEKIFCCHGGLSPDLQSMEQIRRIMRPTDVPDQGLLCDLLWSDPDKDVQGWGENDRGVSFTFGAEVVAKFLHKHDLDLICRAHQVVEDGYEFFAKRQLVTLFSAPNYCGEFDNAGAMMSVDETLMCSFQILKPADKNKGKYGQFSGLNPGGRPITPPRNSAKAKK
Experimental: (§1) PP1c was diluted to the appropriate concentration (as indicated in the figure legends) in dephosphorylation buffer immediately prior to use. Dephosphorylation reactions were carried out by pre-incubating diluted PP1c in the presence or absence of regulatory subunits (either […]), and/or compounds (all at 100 μM, except for Salubrinal which was used at 30 μM), for 15′ at RT. All compounds were diluted in DMSO, and DMSO vehicle was used in all control experiments.
The reaction was initiated by the addition of 1 μM P-eIF2α or ^33P Phosphorylase a substrates and then incubated at 30° C. for 16 h with shaking at 350 rpm. Reactions were stopped by addition of 4× Laemmli sample buffer. eIF2α samples were analyzed by immunoblotting or Phos-tag gels. […] Samples in FIG. 8 and FIG. 16 were run on a 15% SuperSep Phos-tag acrylamide gel (Alpha Laboratories) and visualized by staining with InstantBlue Protein Stain.

[2] = system: HeLa cells; experiment: Cytoprotection of HeLa cells from Tunicamycin (ER) stress; format: cell-based; conditions: 250 ng/ml Tunicamycin, 72 h
Experimental: HeLa cells (40,000 cells/ml) were plated in a 96-well plate and treated with different concentrations of compound, as indicated, or DMSO vehicle in the presence of 250 ng/ml Tunicamycin for 72 h. To monitor cell death, 1/2000 dilution of the CellTox green dye (Promega) was added to the media. The growth of the cells was monitored over time and pictures taken every 2 h with the IncuCyte ZOOM system and analysed by the IncuCyte ZOOM software (Essen BioScience). To compare different compounds and their cytoprotective effect, a growth ratio for each time point was calculated:
Growth ratio=(Phase confluency (%) at X hours)/(Phase confluency (%) at 0 hours)
The end point of the assay (72 h) was chosen for generating the graphs.

[3] = molecular target: T2, PP1 (1 μM) in the presence of R15B (Homo sapiens, UniProt Q5SWA1); experiment: In vitro dephosphorylation of P-eIF2α using stoichiometric PP1c (1 μM) with R15B; format: biochemical; conditions: 1 μM PP1c, 1 μM P-eIF2α, 30° C., 16 h; compound 100 μM
T2 construct: PPP1R15B amino acids 340-698 (R15B); His6 (C); made in house; host or cells: E. coli BL21 pLysS (R15B, eIF2α); E. coli BL21/pGro7 (PP1c)
T2 sequence (Q5SWA1 340-698): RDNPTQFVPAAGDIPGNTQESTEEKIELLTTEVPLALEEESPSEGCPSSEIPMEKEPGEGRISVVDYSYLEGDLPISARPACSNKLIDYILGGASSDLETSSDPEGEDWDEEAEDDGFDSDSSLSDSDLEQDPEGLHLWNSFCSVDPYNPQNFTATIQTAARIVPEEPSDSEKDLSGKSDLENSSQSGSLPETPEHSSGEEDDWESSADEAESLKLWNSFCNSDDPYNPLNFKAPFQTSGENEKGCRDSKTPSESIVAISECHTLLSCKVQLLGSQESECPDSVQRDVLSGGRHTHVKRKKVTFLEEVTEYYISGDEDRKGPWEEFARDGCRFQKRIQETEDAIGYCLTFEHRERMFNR
T2 sequence (P62136 7-330 partner limits assumed): as the sequence (P62136 7-330 partner) above
Experimental: as §1
The reaction was initiated by the addition of 1 μM P-eIF2α or ^33P Phosphorylase a substrates and then incubated at 30° C. for 16 h with shaking at 350 rpm. Reactions were stopped by addition of 4× Laemmli sample buffer. eIF2α samples were analyzed by immunoblotting or Phos-tag gels. P-eIF2α dephosphorylation was analysed by immunoblotting using anti-Phospho-eIF2α (SerS1) (#9721) (Cell Signaling) and anti-eIF2α (ab26197) (AbCam) antibodies. Samples in FIG. 8 and FIG. 16 were run on a 15% SuperSep Phos-tag acrylamide gel (Alpha Laboratories) and visualized by staining with InstantBlue Protein Stain.
As previously reported (Connor et al., 2001), in vitro PP1c alone (1 μM) dephosphorylated eIF2α, and in vitro co-incubation with R15A had no effect in this assay (FIG. 1A). […]

Row | SMILES | effect on dephosphorylation of eIF2α by PP1c with R15A [1] | cytoprotection from ER stress [2] | effect on dephosphorylation of eIF2α by PP1c with R15B [3]
1 | N=C(N)N/N=C/c1c(Cl)cccc1Cl [Guanabenz] | neither the selective R15A inhibitors, Guanabenz and Sephin1, nor the selective inhibitor of R15B, Raphin1, had any measurable effects | Dose dependent cytoprotection | –
2 | NC(N)=N/N=C/c1cccc(Cl)c1Cl [Raphin1] | – | – | nor the selective inhibitor of R15B, Raphin1, had any measurable effects
